Test results: patent publication US20260209789A1, “TRIGGER-INDUCIBLE MRNA CIRCULARIZATION” (WESTLAKE UNIVERSITY, priority 2022, published 2026)

Legend:
[1] = Treatment of type-1 diabetes by oral grazoprevir-inducible insulin expression; conditions: T1D mice with grazoprevir-inducible insulin gene therapy, oral 3 mg/kg
[2] = Grazoprevir-inducible SEAP production in mice (hydrodynamic tail vein injection); conditions: C57BL/6 mice, hydrodynamically injected gene switch, 3 daily administrations, 24 h after first
[3] = system: MAPK signaling (phosphorylated ERK2); assay: Phosphorylation-dependent STIF reconstitution sensor (pE59/ERK2), NanoLuc/FLuc; assay type: cell-based; conditions: 100 ng/mL recombinant human EGF, 48 h
Text: FIG. 11. Genetically encoded signalling-specific sensors employing phosphorylation-dependent STIF reconstitution. (A) L7Ae-based STIFs. […] For (−) conditions, pcDNA3.1 (+) was transfected instead of expression vectors. Data presented are mean±SD of relative luciferase activity (NanoLuc/FLuc), n=3 individual experiments. (B) MCP-based STIFs. […] For (−) conditions, pcDNA3.1 (+) was transfected instead of expression vectors. Data presented are mean±SD of relative luciferase activity (NanoLuc/FLuc), n=3 individual experiments.
Translational regulation by trigger-inducible STIF systems can also be engineered in various other ways. […] In this configuration, HEK-293 cells were transfected with an expression vector for SEAP-mRNA containing 16 tandem MS2-box repeats in the 3′-UTR (SEQ-ID NO: 138) and constitutive expression vectors for MCP-LaM8AK47 (SEQ-ID NO: 241) and mCherry-NSP3 (SEQ-ID NO: 250). […] In the future, engineering of similar sensors for other signalling pathways can be readily achieved by exchanging the pE59 (SEQ-ID NO: 110) and ERK2 (SEQ-ID NO: 85) domains by other signalling specific PPI systems. […]

GNCR: NS3a system = assay: Grazoprevir-inducible SEAP translation in HEK-293 cells (fold-change, dose-dependence, kinetics vs transcriptional switch); conditions: three tandem GNCR and NS3a repeats
Text: Optimization of an L7Ae-based grazoprevir-inducible gene switch. (A) Translational regulation by grazoprevir-dependent STIF association. […] (B) Translational regulation by different grazoprevir-dependent NSP3-fusion proteins. […] (C) Translational regulation by different grazoprevir-dependent L7Ae-fusion proteins.
Optimized L7Ae- and MCP-based grazoprevir-inducible gene switch in mammalian cells. (A) Optimized grazoprevir-inducible regulation of SEAP translation. […] (B, C) Dose-dependent grazoprevir-inducible SEAP expression.
Comparative analysis of gene switches based on STIF-based translation and state-of-the-art transcription-centered designs. (A) Kinetics of grazoprevir-inducible SEAP expression. […] (B) Endpoint performance of grazoprevir-induced translational and transcriptional gene switch switches.

[4] = system: STIF-specific target gene mRNA; assay: STIF-mediated translation of reporter mRNA (SEAP, FLuc, EGFP) in HEK-293 cells; assay type: cell-based, human; conditions: 48 h; for induction folds between basal and activated states (SEAP): HHR-mediated poly (A)-removal, 24 aptamer repeats
Text: FIG. 2. Design and validation of different STIF constructs consisting of RNA-binding protein (RBPs) fused to different eIF4F-binding moieties (eIFBP). (A) Synthetic translation initiation factors (STIFs)-mediated translation of L7Ae-specific SEAP-mRNA with shRNA-216-cleavable poly (A). […] (B) STIF-mediated translation of MCP-specific SEAP-mRNA with shRNA-216-cleavable poly (A). […] (C) Correlation between C/D-box-based aptamer region size and STIF-mediated SEAP expression. HEK-293 cells were co-transfected with SEAP expression vectors containing different tandem repeats of the L7Ae-specific C/D-box aptamer ((C/D-box)8, pSL31; (C/D-box)12, pSL81; (C/D-box)16, pSL80; (C/D-box)24, pSL88), an shRNA-216 expression vector (pSL4) and an expression vector for either PABP-L7Ae (ON; pLZ16) or a Coh2-L7Ae protein incapable of binding eIF4F (OFF; pSL44). […] Data presented are mean±SD, n=4 individual experiments. (D) Correlation between MS2-box-based aptamer region size and STIF-mediated SEAP expression. HEK-293 cells were transfected with SEAP expression vectors containing different tandem repeats of the MCP-specific MS2-box aptamer ((MS2-box)8, pSL515; (MS2-box)12, pSL1284; (MS2-box)16, pSL516; (MS2-box)24, pSL468) and constitutive expression vectors for either MCP-NSP3 (ON; pSL95) or an MCP-Coh2 protein incapable of binding eIF4F (OFF; pSL674). […] Data presented are mean±SD, n=4 individual experiments.
FIG. 5. Translational regulation of SEAP-, Firefly Luciferase and EGFP-mRNA with self-cleavable poly (A). (A) STIF-mediated translation of L7Ae-specific SEAP-mRNA with HHR-cleavable poly (A). […] (B) STIF-mediated translation of MCP-specific SEAP-mRNA with HHR-cleavable poly (A). […] (C, D) STIF-mediated regulation at the protein level of gene expression.

(DocS)3 = biological target: T1, (DocS)3 (Acetivibrio thermocellus, UniProt A3DH67); assay: Coh2/DocS-based STIF protein sensor for cytosolic (DocS)3; conditions: different amounts of pSL244, 48 h
T1 sequence (A3DH67 with tags, fused parts or gaps): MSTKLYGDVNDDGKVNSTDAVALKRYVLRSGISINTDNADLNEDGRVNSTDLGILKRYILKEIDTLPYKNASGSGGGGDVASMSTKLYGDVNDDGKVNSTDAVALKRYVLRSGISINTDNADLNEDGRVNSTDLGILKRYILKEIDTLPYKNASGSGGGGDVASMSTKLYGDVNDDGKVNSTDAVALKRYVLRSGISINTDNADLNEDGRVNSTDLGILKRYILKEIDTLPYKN

[5] = system: STIF-specific target gene mRNA; assay: Translational regulation by constitutive bipartite STIF reconstitution (SEAP, NanoLuc) in HEK-293 cells; assay type: cell-based, human; conditions: 48 h
Text: FIG. 8. Translational regulation by spontaneous assembly of bipartite STIFs. (A) Translational regulation through constitutive STIF reconstitution. […] Transfection of pcDNA3.1 (+) instead of NSP3-fusion proteins was used as a negative control. […] (B) Compatibility of STIF-mediated translational regulation with split-complementation approaches. […] For (−) conditions, pcDNA3.1 (+) was transfected instead of expression vectors.
FIG. 9. Translational regulation through constitutive Coh2/DocS-mediated STIF reconstitution. (A) Site-specific translational activation by eIFBP overexpression. HEK-293 cells were (co-) transfected with an expression vector for SEAP-mRNA containing 24 tandem C/D-box-(left panel, pSL355) or MS2-box repeats in the 3′-UTR (right panel, pSL468), constitutive expression vectors for L7Ae (left) or MCP (right) fused to Coh2 (L7Ae-Coh2, pSL83; MCP-Coh2, pSL674) or EGFP (L7Ae-EGFP, pSL1078; MCP-EGFP, pSL435) and constitutive expression vectors for various chimeric Coh2-specific DocS-containing eIFBP fusions (PABP-DocS, pSL47; DocS-eIF4G, pSL87; DocS-eIF4E, pLZ312; DocS-NSP3, pSL66; DocS-VPg, pLZ311). Transfection of pcDNA3.1 (+) instead of DocS- or MCP-expressing vectors was used as a negative control. […] SEAP (left) and NanoLuc levels in culture supernatants (right) were quantified at 48 h post-transfection. […]

[6] = 20 h after first administration

C=C[C@@H]1C[C@]1(NC(=O)[C@@H]1C[C@@H]2CN1C(=O)[C@H](C(C)(C)C)NC(=O)O[C@@H]1C[C@H]1CCCCCc1nc3ccc(OC)cc3nc1O2)C(=O)NS(=O)(=O)C1CC1.O [grazoprevir]
correction of hyperglycemia (fasting glycemia) [1, 6]: almost complete correction
correction of insulin deficiency (blood insulin levels) [1, 6]: almost complete correction
correction of glucose intolerance (intraperitoneal GTT) ([1]; 24 h after first administration): almost complete correction
oral dose sufficient to fully activate the system (SEAP levels in the bloodstream) [2]: 3 mg/kg

EGF: Animal-free recombinant human EGF (NSDSECPLSHDGYCLHDGVCMYIEALDKYACNCVVGYIGERCQYRDLKWWELR; Epidermal growth factor; UniProt P01133 971-1023, looked up)
reporter levels (NanoLuc/FLuc) vs MAPK activity [3]: increases in reporter levels correlate with increased MAPK activity

L7Ae-(NS3a)3: trigger-inducible STIF regulator
regulation performance (fold-change, dose-dependence, activation kinetics) (GNCR: NS3a system): best regulation performance

L7Ae-NSP3: STIF fusion protein
induction folds between basal and activated states (SEAP) [4]: highest induction folds

MCP-(Coh2)3: bipartite STIF regulator
detection of cytosolic (DocS)3 (SEAP) ((DocS)3): in a dose-dependent manner

MCP-(NS3a)3: trigger-inducible STIF regulator
regulation performance (fold-change, dose-dependence, activation kinetics) (GNCR: NS3a system): best regulation performance

MCP-Coh2: bipartite STIF regulator
target gene translation by spontaneous STIF assembly (SEAP) [5]: modular and effective translational regulation

MCP-NSP3: STIF fusion protein
induction folds between basal and activated states (SEAP) [4]: highest induction folds
regulation of other reporter genes (FLuc, EGFP) ([4]; MCP-specific poly (A)-surrogate): could also regulate a variety of other reporter genes
